Data: ChEMBL document CHEMBL5113502, “Accommodation of ring C expanded deoxyvasicinone in the HDAC inhibitory pharmacophore culminates into a tractable anti-lung cancer agent and pH-responsive nanocarrier” (Eur J Med Chem, 2022)
Active and inactive are the calls of the source. The rule behind the calls is not given here.

Experiments:
HOP-62 = assay: Cytotoxicity against human HOP-62 cells assessed as cell viability after 48 hrs by MTT assay; assay type: functional, cell-based; settings: HOP-62, 48 h
A549 [1] = assay: Inhibition of colony formation in human A549 cells measured after 24 hrs; assay type: functional, cell-based; settings: dose 0.1-1 µM, DDE = dose-dependent effect
A549 [2] = assay: Induction of cell cycle arrest in human A549 cells assessed as accumulation at G0/G1 phase at 0.5 times IC50 after 48 hrs by flow cytometry; assay type: functional, cell-based
A549 [3] = assay: Induction of apoptosis in human A549 cells assessed as […] deformation at 0.1 to 1 uM after 24 hrs by fluorescence microscopic analysis; assay type: functional, cell-based; settings: dose 0.1-1 µM
A549 [4] = assay: Induction of apoptosis in human A549 cells assessed as nuclear condensation at 0.1 to 1 uM after 24 hrs by fluorescence microscopic analysis; assay type: functional, cell-based; settings: dose 0.1-1 µM
A549 [5] = assay: Induction of apoptosis in human A549 cells assessed as apoptotic bodies formation after 24 hrs by fluorescence microscopic analysis; assay type: functional, cell-based; settings: dose 0.1-1 µM, DDE = dose-dependent effect
Histone deacetylase 1 = Histone deacetylase 1 (Homo sapiens, UniProt Q13547); assay: Inhibition of HDAC1 (unknown origin) by colorimetric method
Chain of Histone deacetylase 1 (Q13547 whole entry): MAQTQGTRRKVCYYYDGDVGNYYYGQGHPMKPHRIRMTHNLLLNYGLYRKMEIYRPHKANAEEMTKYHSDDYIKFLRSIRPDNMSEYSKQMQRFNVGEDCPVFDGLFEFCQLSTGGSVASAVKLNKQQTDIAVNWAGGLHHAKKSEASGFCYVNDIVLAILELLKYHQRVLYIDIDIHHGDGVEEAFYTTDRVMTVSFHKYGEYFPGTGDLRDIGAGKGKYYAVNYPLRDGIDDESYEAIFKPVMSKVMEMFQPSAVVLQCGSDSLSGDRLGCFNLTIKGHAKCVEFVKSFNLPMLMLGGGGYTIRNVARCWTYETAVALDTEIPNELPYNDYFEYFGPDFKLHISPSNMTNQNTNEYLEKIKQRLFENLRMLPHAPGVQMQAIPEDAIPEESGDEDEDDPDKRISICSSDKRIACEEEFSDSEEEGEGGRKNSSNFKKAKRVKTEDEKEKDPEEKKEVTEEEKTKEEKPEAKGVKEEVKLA

Histone deacetylase 2 = Histone deacetylase 2 (Homo sapiens, UniProt Q92769); assay: Inhibition of HDAC2 (unknown origin) by colorimetric method
Chain of Histone deacetylase 2 (Q92769 whole entry): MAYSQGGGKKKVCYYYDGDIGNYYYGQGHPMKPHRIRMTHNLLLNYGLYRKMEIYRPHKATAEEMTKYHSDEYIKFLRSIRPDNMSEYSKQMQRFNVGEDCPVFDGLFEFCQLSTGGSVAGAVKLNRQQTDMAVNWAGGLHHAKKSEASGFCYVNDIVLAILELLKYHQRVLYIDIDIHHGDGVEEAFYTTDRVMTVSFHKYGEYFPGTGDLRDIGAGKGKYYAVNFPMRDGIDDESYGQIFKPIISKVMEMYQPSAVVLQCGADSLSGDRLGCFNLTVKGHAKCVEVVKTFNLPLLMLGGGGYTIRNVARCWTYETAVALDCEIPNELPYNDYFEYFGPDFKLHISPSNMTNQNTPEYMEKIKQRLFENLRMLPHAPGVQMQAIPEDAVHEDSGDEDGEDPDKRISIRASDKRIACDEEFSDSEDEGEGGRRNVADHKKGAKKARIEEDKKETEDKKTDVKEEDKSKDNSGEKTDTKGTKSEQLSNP

Histone deacetylase 4 = Histone deacetylase 4 (Homo sapiens, UniProt P56524); assay: Inhibition of HDAC4 (unknown origin) by colorimetric method
Chain of Histone deacetylase 4 (P56524 whole entry): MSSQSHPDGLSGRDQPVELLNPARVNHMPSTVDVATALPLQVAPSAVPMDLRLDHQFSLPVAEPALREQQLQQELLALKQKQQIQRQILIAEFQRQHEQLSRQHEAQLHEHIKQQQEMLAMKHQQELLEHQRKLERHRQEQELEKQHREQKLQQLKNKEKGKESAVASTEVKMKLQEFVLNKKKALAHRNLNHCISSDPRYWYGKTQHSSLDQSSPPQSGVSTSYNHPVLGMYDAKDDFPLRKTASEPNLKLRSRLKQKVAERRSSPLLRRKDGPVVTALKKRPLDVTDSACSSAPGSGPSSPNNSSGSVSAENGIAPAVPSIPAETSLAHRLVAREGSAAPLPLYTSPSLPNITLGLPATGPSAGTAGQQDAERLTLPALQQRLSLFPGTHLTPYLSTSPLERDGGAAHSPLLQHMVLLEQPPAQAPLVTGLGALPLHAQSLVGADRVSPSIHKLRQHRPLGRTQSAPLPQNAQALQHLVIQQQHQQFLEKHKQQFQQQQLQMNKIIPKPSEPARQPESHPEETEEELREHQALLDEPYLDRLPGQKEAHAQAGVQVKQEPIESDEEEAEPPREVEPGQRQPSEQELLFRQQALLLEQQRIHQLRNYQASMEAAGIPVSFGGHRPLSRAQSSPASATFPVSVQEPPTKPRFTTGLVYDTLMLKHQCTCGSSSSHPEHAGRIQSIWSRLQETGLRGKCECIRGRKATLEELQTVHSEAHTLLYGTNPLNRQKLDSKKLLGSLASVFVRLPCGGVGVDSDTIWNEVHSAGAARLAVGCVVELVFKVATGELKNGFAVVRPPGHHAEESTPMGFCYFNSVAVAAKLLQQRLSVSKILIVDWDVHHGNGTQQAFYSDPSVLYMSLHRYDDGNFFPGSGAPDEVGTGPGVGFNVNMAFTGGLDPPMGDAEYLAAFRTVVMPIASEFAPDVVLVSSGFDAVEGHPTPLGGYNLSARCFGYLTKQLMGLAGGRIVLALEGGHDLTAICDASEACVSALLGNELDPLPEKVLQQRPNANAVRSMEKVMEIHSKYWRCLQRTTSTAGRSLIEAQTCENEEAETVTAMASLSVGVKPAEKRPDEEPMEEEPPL

Histone deacetylase 7 = biological target: T1, Histone deacetylase 7 (Homo sapiens, UniProt Q8WUI4); assay: Inhibition of HDAC7 (unknown origin) by colorimetric method
T1 sequence (Q8WUI4 whole entry): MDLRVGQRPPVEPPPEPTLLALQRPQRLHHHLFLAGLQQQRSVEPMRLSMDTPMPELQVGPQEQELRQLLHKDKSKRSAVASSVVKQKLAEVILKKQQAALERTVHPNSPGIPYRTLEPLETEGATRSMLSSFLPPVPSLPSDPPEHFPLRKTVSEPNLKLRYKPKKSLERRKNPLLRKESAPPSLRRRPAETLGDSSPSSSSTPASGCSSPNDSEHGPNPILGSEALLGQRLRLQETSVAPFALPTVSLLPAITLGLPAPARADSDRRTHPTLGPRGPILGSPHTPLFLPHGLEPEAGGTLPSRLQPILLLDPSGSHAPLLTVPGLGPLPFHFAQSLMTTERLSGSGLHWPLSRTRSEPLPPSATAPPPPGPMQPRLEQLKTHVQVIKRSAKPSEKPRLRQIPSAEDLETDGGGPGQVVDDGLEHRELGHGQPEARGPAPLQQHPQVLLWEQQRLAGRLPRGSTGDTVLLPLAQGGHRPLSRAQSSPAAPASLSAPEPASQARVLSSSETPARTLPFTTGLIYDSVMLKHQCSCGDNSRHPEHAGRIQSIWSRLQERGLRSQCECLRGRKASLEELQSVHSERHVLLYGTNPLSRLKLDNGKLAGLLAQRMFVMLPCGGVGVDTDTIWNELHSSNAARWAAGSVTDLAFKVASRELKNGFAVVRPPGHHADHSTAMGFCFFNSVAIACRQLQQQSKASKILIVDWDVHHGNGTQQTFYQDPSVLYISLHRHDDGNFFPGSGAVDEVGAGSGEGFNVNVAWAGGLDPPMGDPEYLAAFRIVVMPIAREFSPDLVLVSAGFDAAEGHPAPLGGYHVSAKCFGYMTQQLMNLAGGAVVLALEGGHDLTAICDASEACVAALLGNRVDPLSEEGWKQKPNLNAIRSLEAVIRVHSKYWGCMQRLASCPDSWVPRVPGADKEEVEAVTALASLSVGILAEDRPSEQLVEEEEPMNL

Histone deacetylase 8 = biological target: T2, Histone deacetylase 8 (Homo sapiens, UniProt Q9BY41); assay: Inhibition of HDAC8 (unknown origin) by colorimetric method
T2 sequence (Q9BY41 whole entry): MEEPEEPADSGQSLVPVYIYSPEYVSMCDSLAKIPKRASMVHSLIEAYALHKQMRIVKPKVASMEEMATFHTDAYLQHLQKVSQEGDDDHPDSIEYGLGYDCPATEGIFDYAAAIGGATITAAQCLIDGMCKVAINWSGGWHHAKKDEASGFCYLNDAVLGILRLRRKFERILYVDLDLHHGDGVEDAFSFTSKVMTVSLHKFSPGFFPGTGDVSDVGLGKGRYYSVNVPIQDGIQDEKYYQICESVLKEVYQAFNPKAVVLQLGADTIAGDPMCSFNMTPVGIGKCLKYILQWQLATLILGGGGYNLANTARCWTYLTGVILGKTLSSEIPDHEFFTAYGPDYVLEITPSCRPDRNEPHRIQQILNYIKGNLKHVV

Histone deacetylase 9 = Histone deacetylase 9 (Homo sapiens, UniProt Q9UKV0); assay: Inhibition of HDAC9 (unknown origin) by colorimetric method
Chain of Histone deacetylase 9 (Q9UKV0 whole entry): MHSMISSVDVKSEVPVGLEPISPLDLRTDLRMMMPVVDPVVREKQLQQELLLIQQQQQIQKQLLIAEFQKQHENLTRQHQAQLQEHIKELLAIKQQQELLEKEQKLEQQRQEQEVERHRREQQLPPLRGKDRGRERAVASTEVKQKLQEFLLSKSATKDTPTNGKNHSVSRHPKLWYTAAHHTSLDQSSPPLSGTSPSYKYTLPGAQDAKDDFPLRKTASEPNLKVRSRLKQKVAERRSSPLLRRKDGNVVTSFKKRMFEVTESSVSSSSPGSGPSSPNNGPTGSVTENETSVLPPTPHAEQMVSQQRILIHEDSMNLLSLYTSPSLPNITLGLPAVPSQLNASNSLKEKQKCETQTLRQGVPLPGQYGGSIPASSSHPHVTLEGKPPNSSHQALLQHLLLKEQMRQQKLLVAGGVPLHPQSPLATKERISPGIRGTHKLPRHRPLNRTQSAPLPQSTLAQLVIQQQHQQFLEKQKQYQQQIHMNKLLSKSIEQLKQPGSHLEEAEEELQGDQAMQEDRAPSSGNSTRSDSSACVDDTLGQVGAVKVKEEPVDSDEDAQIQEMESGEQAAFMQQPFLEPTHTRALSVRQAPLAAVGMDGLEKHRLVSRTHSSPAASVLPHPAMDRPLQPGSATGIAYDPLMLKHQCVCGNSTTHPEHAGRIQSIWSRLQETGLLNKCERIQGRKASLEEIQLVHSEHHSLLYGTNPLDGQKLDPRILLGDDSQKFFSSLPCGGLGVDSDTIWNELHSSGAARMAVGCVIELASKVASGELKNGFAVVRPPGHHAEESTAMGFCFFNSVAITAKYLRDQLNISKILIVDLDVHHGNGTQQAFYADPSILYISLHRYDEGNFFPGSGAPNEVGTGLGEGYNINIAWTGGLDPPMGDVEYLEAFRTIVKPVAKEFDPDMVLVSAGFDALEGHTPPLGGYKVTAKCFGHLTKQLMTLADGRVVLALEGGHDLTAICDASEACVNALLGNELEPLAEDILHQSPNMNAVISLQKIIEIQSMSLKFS

Homo sapiens [6] = species on record: Homo sapiens; assay: Selectivity index, ratio of IC50 for HDAC4 (unknown origin) to IC50 for HDAC 6 (unknown origin)
Homo sapiens [7] = species on record: Homo sapiens; assay: Selectivity index, ratio of IC50 for HDAC5 (unknown origin) to IC50 for HDAC 6 (unknown origin)
Homo sapiens [8] = species on record: Homo sapiens; assay: Selectivity index, ratio of IC50 for HDAC7 (unknown origin) to IC50 for HDAC 6 (unknown origin)
Homo sapiens [9] = species on record: Homo sapiens; assay: Selectivity index, ratio of IC50 for HDAC9 (unknown origin) to IC50 for HDAC 6 (unknown origin)
Homo sapiens [10] = species on record: Homo sapiens; assay: Selectivity index, ratio of IC50 for HDAC 2 (unknown origin) to IC50 for HDAC 3 (unknown origin)
Homo sapiens [11] = species on record: Homo sapiens; assay: Selectivity index, ratio of IC50 for HDAC 5 (unknown origin) to IC50 for HDAC 3 (unknown origin)
Homo sapiens [12] = species on record: Homo sapiens; assay: Selectivity index, ratio of IC50 for HDAC6 (unknown origin) to IC50 for HDAC 3 (unknown origin)
Homo sapiens [13] = species on record: Homo sapiens; assay: Selectivity index, ratio of IC50 for HDAC 9 (unknown origin) to IC50 for HDAC 3 (unknown origin)
Homo sapiens [14] = species on record: Homo sapiens; assay: Selectivity index, ratio of IC50 for HDAC 2 (unknown origin) to IC50 for HDAC 1 (unknown origin)
Homo sapiens [15] = species on record: Homo sapiens; assay: Selectivity index, ratio of IC50 for HDAC 4 (unknown origin) to IC50 for HDAC 1 (unknown origin)
Homo sapiens [16] = species on record: Homo sapiens; assay: Selectivity index, ratio of IC50 for HDAC5 (unknown origin) to IC50 for HDAC 1 (unknown origin)
Homo sapiens [17] = species on record: Homo sapiens; assay: Selectivity index, ratio of IC50 for HDAC8 (unknown origin) to IC50 for HDAC 1 (unknown origin)
Homo sapiens [18] = species on record: Homo sapiens; assay: Selectivity index, ratio of IC50 for HDAC9 (unknown origin) to IC50 for HDAC 1 (unknown origin)
A549 [19] = assay: Downregulation of HDAC6 expression in human A549 cells at 0.1 to 1 uM after 24 hrs by Western blot analysis; assay type: functional, cell-based; settings: dose 0.1-1 µM
A549 [20] = assay: Inhibition of HDAC1/HDAC3/HDAC6 in human A549 cells assessed as increase in H3 acK9 level by Western blot analysis; assay type: cell-based
A549 [21] = assay: Inhibition of HDAC1/HDAC3/HDAC6 in human A549 cells assessed as increase in alpha-tubulin-ack40 level by Western blot analysis; assay type: cell-based

## O=C(/C=C/c1ccc(CNc2ccc3nc4n(c(=O)c3c2)CCCCC4)cc1)NO
HOP-62
  IC50: 900 nM
A549 [1]
  inhibition: Dde
A549 [2]
  Activity: Active
A549 [3]
  Activity: Active
A549 [4]
  Activity: Active
A549 [5]
  Activity: Dde
Histone deacetylase 1
  IC50: 49.9 nM
Histone deacetylase 2
  IC50: 1260 nM
Histone deacetylase 4
  IC50: 1630 nM
Histone deacetylase 7
  IC50: 4080 nM
Histone deacetylase 8
  IC50: 178 nM
Histone deacetylase 9
  IC50: 4320 nM
Homo sapiens [6]
  Ratio IC50: 126
Homo sapiens [7]
  Ratio IC50: 47.8
Homo sapiens [8]
  Ratio IC50: 316
Homo sapiens [9]
  Ratio IC50: 335
Homo sapiens [10]
  Ratio IC50: 18.4
Homo sapiens [11]
  Ratio IC50: 9.01
Homo sapiens [12]
  Ratio IC50: 0.188
Homo sapiens [13]
  Ratio IC50: 63.1
Homo sapiens [14]
  Ratio IC50: 25.2
Homo sapiens [15]
  Ratio IC50: 32.7
Homo sapiens [16]
  Ratio IC50: 12.4
Homo sapiens [17]
  Ratio IC50: 3.56
Homo sapiens [18]
  Ratio IC50: 86.6
A549 [19]
  inhibition: Active
A549 [20]
  inhibition: Active
A549 [21]
  inhibition: Active
